{
  "source": "patent US20240293404A1",
  "about": "“SALT AND CRYSTAL FORMS OF AN EPIDERMAL GROWTH FACTOR RECEPTOR INHIBITOR” (Blueprint Medicines Corporation, priority 2021, published 2024)",
  "key": {"[1]": {"experiment": "Dynamic Vapor Sorption (DVS)", "assay_type": "physicochemical", "settings": "between 2 and 95% relative humidity at 25° C.", "method": "DVS was performed using a DVS Intrinsic 1. The sample (5-25 mg) was loaded into a sample pan, suspended from a microbalance and exposed to a humidified stream of nitrogen gas. The sample was held for a minimum of 5 min at each level and only progressed to the next humidity level if there was <0.002% change in weight between measurements (interval: 60 s) or 60 min had elapsed. The following program was used: • 1—Equilibration at 50% RH • 2—50% to 2%. (50%, 40%, 30%, 20%, 10%, and 2%) • 3—2% to 95% (2%, 10%, 20%, 30%, 40%, 50%, 60%, 70%, 80%, 90%, 95%) • 4—95% to 2% (95%, 80%, 70%, 60%, 50%, 40%, 30%, 20%, 10%, 2%) • 5—2% to 50% (2%, 10%, 20%, 30%, 40%, 50%)"}, "[2]": {"system": "EGFR mutant NSCLC", "settings": "NSCLC patients; cited from earlier work"}},
  "data": [
    {"smiles": "CO[C@@H]1CCN(c2nccc(Nc3cc4c(C(C)C)ccc(N5C[C@H](CS(C)(=O)=O)[C@H]5C)c4cn3)n2)C[C@@H]1F", "note": "[1:0.5 Compound (I) Semi-Succinate]", "values": [
      {"measurement": "DVS mass change", "setting": "[1]", "result": 7.1, "unit": "wt. %"}
    ]},
    {"smiles": "CO[C@@H]1CCN(c2nccc(Nc3cc4c(C(C)C)ccc(N5C[C@H](CS(C)(=O)=O)[C@H]5C)c4cn3)n2)C[C@@H]1F", "note": "[Compound (I) Freebase Form B]", "values": [
      {"measurement": "DVS mass change", "setting": "[1]", "result": 2.1, "unit": "wt. %"}
    ]},
    {"smiles": "C=CC(=O)Nc1cc(Nc2nccc(-c3cn(C)c4ccccc34)n2)c(OC)cc1N(C)CCN(C)C", "note": "[osimertinib]", "values": [
      {"measurement": "time within which resistance mediated by exon 20 C797 mutation (often C797S) usually develops", "setting": "[2]", "result": "≤ 10", "unit": "months"}
    ]}
  ]
}
